Source: patent publication US20260209215A1, “GLYCINE DERIVATIVES WITH P2X4 RECEPTOR-BLOCKING ACTIVITY AS DIAGNOSTICS AND FOR THE TREATMENT OF PAIN, INFLAMMATION, CANCER, AND OTHER P2X4 RECEPTOR-RELATED DISEASES” (RHEINISCHE-FRIEDRICH-WILHELMS-UNIVERSITÄT BONN, priority 2022, published 2026)

Target: T1, P2X4 receptor (Homo sapiens, UniProt Q99571)
T1 construct: expressed in transfected cells; host or cells: 1321N1 astrocytoma cells, retroviral vector pQCXIN, G418 selection, monoclones
T1 sequence (Q99571 1-388): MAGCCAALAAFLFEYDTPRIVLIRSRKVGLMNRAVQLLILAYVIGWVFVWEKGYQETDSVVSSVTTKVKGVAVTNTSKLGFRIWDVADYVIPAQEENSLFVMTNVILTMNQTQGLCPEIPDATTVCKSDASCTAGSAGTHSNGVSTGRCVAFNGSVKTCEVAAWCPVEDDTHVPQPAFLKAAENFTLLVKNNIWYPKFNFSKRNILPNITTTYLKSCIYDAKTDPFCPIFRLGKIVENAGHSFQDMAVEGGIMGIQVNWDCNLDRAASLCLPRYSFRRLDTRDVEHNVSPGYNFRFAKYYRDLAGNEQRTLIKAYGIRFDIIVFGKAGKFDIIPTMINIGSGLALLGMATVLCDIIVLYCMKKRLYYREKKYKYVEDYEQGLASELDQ
Assay: Measurement of Ca2+ influx in transfected 1321N1 astrocytoma cells (P2X4 inhibitory potency)
Assay type: cell-based
Settings: agonist-mediated Ca2+ influx, FLUO-4, 1321N1 astrocytoma cells; antagonists added 30 min before agonist
Text: The rat, mouse, and human P2X4 DNA, respectively, were cloned into the retroviral vector pQCXIN. 1321N1 Astrocytoma cells were transfected with the DNA using a retroviral system as described previously. In brief, GP+envAM12 packaging cells were first transiently co-transfected with a retroviral vector to generate the retrovirus and with a vesicular stomatitis virus G protein (VSV-G) to pseudotype the virus and to increase their infection efficiency. The viruses containing the rat, mouse or human P2X4 receptor sequence were then used to create a stable astrocytoma cell line. P2X4 receptor-expressing cells were selected with G418 ([…]).
The selection of monoclones for rat and human P2X4 receptors was performed using the limited dilution method by plating the cells at very low cell densities (1 cell clone per well in 96-well plates). Cells were counted, and then several dilutions were made to obtain a concentration of […]. We subsequently added 100 µL of the diluted cell suspension into each well expecting to obtain on average 1 cell per well. After a few days the wells that contained single clones were labeled and transferred into 24 well plates. More than 20 clones were selected for each cell line and characterized in calcium influx assay.
Measurement of Ca^2+ influx in transfected 1321N1 astrocytoma cells
P2X receptor function was determined on the basis of agonist-mediated increases in cytosolic Ca^2+ concentration. The fluorescent Ca^2+chelating dye FLUO-4 was used as an indicator of the relative levels of intracellular Ca^2+ in a 96-well format using a fluorescence imaging plate reader (Novostar, BMG, Germany). Cells were grown to confluence in 96-well black-walled tissue culture plates and loaded with FLUO-4 AM ([…]) in Hank's balanced salt solution (HBSS, containing 10 mM HEPES, pH 7.3, and 1% Pluronic® F127) for 1 h at 23° C. After incubation, the loaded cells were washed with the same buffer to remove extracellular FLUO-4 AM. Compound solutions were prepared in HBSS (containing 20 mM HEPES, pH 7.3) or DMSO depending on their solubility. […] Fluorescence intensity was measured at 520 nm for 30 s at 0.4 s intervals. Buffer or test compounds were injected sequentially into separate wells using the automatic pipetting device. At least three independent experiments were performed in triplicate or duplicate. Antagonists were added 30 min before the addition of agonists. The assays were performed in a final volume of 200 μL. Compounds were tested at 7-8 different concentrations spanning three orders of magnitude of concentrations. Statistical significances were calculated using the unpaired two-tailed t-test.

First: Cc1ccc(-c2nc(C(F)F)ns2)cc1NCC(=O)N1CCc2c1cccc2C(C)(C)O [Example 40, 2-((5-(3-(difluoromethyl)-1,2,4-thiadiazol-5-yl)-2-methylphenyl)amino)-1-(4-(2-hydroxypropan-2-yl)indolin-1-yl) ethan-1-one]
Second: Cc1ccc(-c2nc(C(F)F)ns2)cc1NCC(=O)N1CCc2c1cccc2C(C)(O)CO (centres unmarked) [Example 61, 2-((5-(3-(difluoromethyl)-1,2,4-thiadiazol-5-yl)-2-methylphenyl)amino)-1-(4-(1,2-dihydroxypropan-2-yl)indolin-1-yl)ethan-1-one]
The IC50 of the first is higher: 20 to 39 nM for the first, 0.1 to 19 nM for the second.

`Cc1noc(-c2ccc(F)c(NCC(=O)N3CCc4c(C(O)C(F)(F)F)cccc43)c2)n1` (centres unmarked) [Example 41, 2-((2-fluoro-5-(3-methyl-1,2,4-oxadiazol-5-yl)phenyl)amino)-1-(4-(2,2,2-trifluoro-1-hydroxyethyl)indolin-1-yl)ethan-1-one] and `Cc1noc(-c2ccc(F)c(NCC(=O)N3CCc4c3cccc4C(C)(C)O)c2)n1` [Example 53, 2-((2-fluoro-5-(3-methyl-1,2,4-oxadiazol-5-yl)phenyl)amino)-1-(4-(2-hydroxypropan-2-yl)-indolin-1-yl)ethan-1-one] fall in the same range of IC50: 20 to 39 nM for the first, 20 to 39 nM for the second.

First: COc1ccc2c(n1)CCN2C(=O)CNc1cc(-c2nc(C)ns2)ccc1C [Example 42, 1-(5-methoxy-2,3-dihydro-1H-pyrrolo[3,2-b]pyridin-1-yl)-2-((2-methyl-5-(3-methyl-1,2,4-thiadiazol-5-yl)phenyl)-amino)ethan-1-one]
Second: Cc1nsc(-c2ccc(C)c(NCC(=O)N3CCc4ccccc43)c2)n1 [Example 52, 1-(indolin-1-yl)-2-((2-methyl-5-(3-methyl-1,2,4-thiadiazol-5-yl)phenyl)amino)ethan-1-one]
The IC50 of the first is lower: 20 to 39 nM for the first, 40 to 69 nM for the second.

Compared with `Cc1ccc(-c2ccc(F)c(NCC(=O)N3CCc4c(OCC(C)(C)O)cccc43)c2)o1` [Example 43, 2-((2-fluoro-5-(5-methylfuran-2-yl)phenyl)amino)-1-(4-(2-hydroxy-2-methylpropoxy)-indolin-1-yl)ethan-1-one], `Cc1noc(-c2ccc(C)c(NCC(=O)N3CCc4c(OCC(C)(C)O)cccc43)c2)n1` [Example 49, 1-(4-(2-hydroxy-2-methylpropoxy)indolin-1-yl)-2-((2-methyl-5-(3-methyl-1,2,4-oxadiazol-5-yl)phenyl)amino)ethan-1-one] is higher in IC50: 20 to 39 nM for the first, 40 to 69 nM for the second. The first is the more potent here.

First: Cc1nsc(-c2ccc(C)c(NCC(=O)N3CCc4c(NCC(C)(C)O)cccc43)c2)n1 [Example 44, 1-(4-((2-hydroxy-2-methylpropyl)amino)indolin-1-yl)-2-((2-methyl-5-(3-methyl-1,2,4-thiadiazol-5-yl)phenyl)-amino)ethan-1-one]
Second: Cc1nsc(-c2ccc(C)c(NCC(=O)N3CCc4c3cccc4[C@@](C)(O)CO)c2)n1 [Example 64, 1-(4-(1,2-dihydroxypropan-2-yl)indolin-1-yl)-2-((2-methyl-5-(3-methyl-1,2,4-thiadiazol-5-yl)phenyl)amino)ethan-1-one]
The IC50 of the first is higher: 20 to 39 nM for the first, 0.1 to 19 nM for the second.

`CCc1nsc(-c2ccc(C)c(NCC(=O)N3CCc4c(C(=O)N5CCN(C)CC5)cccc43)c2)n1` [Example 45, 2-((5-(3-ethyl-1,2,4-thiadiazol-5-yl)-2-methylphenyl)amino)-1-(4-(4-methylpiperazine-1-carbonyl)indolin-1-yl) ethan-1-one] and `CCc1nsc(-c2ccc(C)c(NCC(=O)N3CCc4c(N5CC(O)C5)cccc43)c2)n1` [Example 66, 2-((5-(3-ethyl-1,2,4-thiadiazol-5-yl)-2-methylphenyl)amino)-1-(4-(3-hydroxyazetidin-1-yl)indolin-1-yl)ethan-1-one] fall in the same range of IC50: 20 to 39 nM for the first, 20 to 39 nM for the second.

Compared with `Cc1nsc(-c2ccc(C)c(NCC(=O)N3CCc4c(NS(C)(=O)=O)cccc43)c2)n1` [Example 46, N-(1-((2-methyl-5-(3-methyl-1,2,4-thiadiazol-5-yl)phenyl)glycyl)indolin-4-yl)methanesulfonamide], `Cc1nsc(-c2ccc(C)c(NCC(=O)N3CCc4c3cccc4S(N)(=O)=O)c2)n1` [Example 51, 1-((2-methyl-5-(3-methyl-1,2,4-thiadiazol-5-yl)phenyl)glycyl)-indoline-4-sulfonamide] is higher in IC50: 20 to 39 nM for the first, 40 to 69 nM for the second.

Compared with `Cc1noc(-c2ccc(C)c(NCC(=O)N3CCc4c(OCCC(C)(C)O)cccc43)c2)n1` [Example 47, 1-(4-(3-hydroxy-3-methylbutoxy)indolin-1-yl)-2-((2-methyl-5-(3-methyl-1,2,4-oxadiazol-5-yl)phenyl)amino)ethan-1-one], `Cc1ccc(-c2nc(C3CC3)no2)cc1NCC(=O)N1CCc2c(OCC(C)(C)O)cccc21` [Example 50, 2-((5-(3-cyclopropyl-1,2,4-oxadiazol-5-yl)-2-methylphenyl)amino)-1-(4-(2-hydroxy-2-methylpropoxy)-indolin-1-yl)ethan-1-on] is higher in IC50: 20 to 39 nM for the first, 40 to 69 nM for the second.

Compared with `Cc1nsc(-c2ccc(C)c(NCC(=O)N3CCc4c3cccc4-n3ccnc3)c2)n1` [Example 48, 1-(4-(1H-imidazol-1-yl)indolin-1-yl)-2-((2-methyl-5-(3-methyl-1,2,4-thiadiazol-5-yl)phenyl)amino)ethan-1-one], `Cc1nsc(-c2ccc(C)c(NCC(=O)N3CCc4c3cccc4N3CC(=O)NC3=O)c2)n1` [Example 54, 1-(1-((2-methyl-5-(3-methyl-1,2,4-thiadiazol-5-yl)phenyl)glycyl)indolin-4-yl) imidazolidine-2,4-dione] is higher in IC50: 20 to 39 nM for the first, 70 to 99 nM for the second. The first is the more potent here.

`Cc1nsc(-c2ccc(C)c(NCC(=O)N3CCc4c3cccc4C3(O)COC3)c2)n1` [Example 55, 1-(4-(3-hydroxyoxetan-3-yl)indolin-1-yl)-2-((2-methyl-5-(3-methyl-1,2,4-thiadiazol-5-yl)phenyl)amino)ethan-1-one] and `Cc1nsc(-c2ccc(C)c(NCC(=O)N3CCc4c3cccc4C(C)(F)CO)c2)n1` (centres unmarked) [Example 63, 1-(4-(2-fluoro-1-hydroxypropan-2-yl)indolin-1-yl)-2-((2-methyl-5-(3-methyl-1,2,4-thiadiazol-5-yl)phenyl)amino)ethan-1-one] fall in the same range of IC50: 0.1 to 19 nM for the first, 0.1 to 19 nM for the second.

`CCc1nsc(-c2ccc(F)c(NCC(=O)N3CCc4c(N5CC(O)C5)cccc43)c2)n1` [Example 56, 2-((5-(3-ethyl-1,2,4-thiadiazol-5-yl)-2-fluorophenyl)amino)-1-(4-(3-hydroxyazetidin-1-yl)indolin-1-yl)ethan-1-one] and `Cc1nsc(-c2ccc(C)c(NCC(=O)N3CCc4c3cccc4[C@](C)(O)CO)c2)n1` [Example 65, 1-(4-(1,2-dihydroxypropan-2-yl)indolin-1-yl)-2-((2-methyl-5-(3-methyl-1,2,4-thiadiazol-5-yl)phenyl)amino)ethan-1-one] fall in the same range of IC50: 0.1 to 19 nM for the first, 0.1 to 19 nM for the second.

`COC(=O)C1CN(C(=O)CNc2cc(-c3nc(C)ns3)ccc2C)c2ccccc21` (centres unmarked) [Example 57, methyl 1-((2-methyl-5-(3-methyl-1,2,4-thiadiazol-5-yl)-phenyl)glycyl)indoline-3-carboxylate] and `CNC(=O)C1CN(C(=O)CNc2cc(-c3nc(C)ns3)ccc2C)c2ccccc21` (centres unmarked) [Example 59, N-methyl-1-((2-methyl-5-(3-methyl-1,2,4-thiadiazol-5-yl)phenyl)glycyl) indoline-3-carboxamide] cannot be ordered by IC50: greater than 100 nM for the first, greater than 100 nM for the second.

First: Cc1nsc(-c2ccc(C)c(NCC(=O)N3CC(CCO)c4ccccc43)c2)n1 (centres unmarked) [Example 58, 1-(3-(2-hydroxyethyl)indolin-1-yl)-2-((2-methyl-5-(3-methyl-1,2,4-thiadiazol-5-yl)phenyl)amino)ethan-1-one]
Second: Cc1noc(-c2ccc(F)c(NCC(=O)N3CCc4c3cccc4C(C)(O)CO)c2)n1 (centres unmarked) [Example 60, 1-(4-(1,2-dihydroxypropan-2-yl)indolin-1-yl)-2-((2-fluoro-5-(3-methyl-1,2,4-oxadiazol-5-yl)phenyl)amino)ethan-1-one]
The IC50 of the first is higher: greater than 100 nM for the first, 40 to 69 nM for the second. The second is the more potent here.
